Data on 9 molecules can be found in patent US20040247524A1, “Method of treatment of an inflammatory disorder with a Vanin-1 antagonist” (priority 2003, published 2004).

Read-outs that look alike come from different tables or passages of the source.

One data set relates to Vanin-1. The conditions noted are these: cited from earlier work.
Data set [1] deals with T1, γ-GCS (Mus musculus, UniProt P97494).
T1 construct: Determination of γ-GCS Activity and GSH Levels in Liver and Intestine; from tissue; host or cells: liver and intestine of WT and Vanin-1-/- BALB/c mice
T1 sequence (P97494 1-637): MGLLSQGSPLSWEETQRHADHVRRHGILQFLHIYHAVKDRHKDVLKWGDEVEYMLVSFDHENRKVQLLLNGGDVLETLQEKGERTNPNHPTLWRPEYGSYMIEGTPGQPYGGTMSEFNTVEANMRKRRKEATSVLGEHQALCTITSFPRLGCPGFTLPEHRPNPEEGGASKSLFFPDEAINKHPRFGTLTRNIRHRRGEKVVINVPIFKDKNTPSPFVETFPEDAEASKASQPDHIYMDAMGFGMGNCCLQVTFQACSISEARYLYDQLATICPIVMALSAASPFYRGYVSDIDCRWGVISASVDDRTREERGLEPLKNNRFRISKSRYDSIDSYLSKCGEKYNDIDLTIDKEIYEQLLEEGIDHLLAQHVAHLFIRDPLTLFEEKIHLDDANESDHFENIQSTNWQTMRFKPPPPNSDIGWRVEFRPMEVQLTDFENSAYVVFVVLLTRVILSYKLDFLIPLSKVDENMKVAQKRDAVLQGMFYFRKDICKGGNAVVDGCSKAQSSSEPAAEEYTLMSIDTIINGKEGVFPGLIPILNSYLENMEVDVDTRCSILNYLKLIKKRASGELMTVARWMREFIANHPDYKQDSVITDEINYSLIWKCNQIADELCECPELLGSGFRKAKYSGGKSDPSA
T1 sequence (O09172 1-274 partner): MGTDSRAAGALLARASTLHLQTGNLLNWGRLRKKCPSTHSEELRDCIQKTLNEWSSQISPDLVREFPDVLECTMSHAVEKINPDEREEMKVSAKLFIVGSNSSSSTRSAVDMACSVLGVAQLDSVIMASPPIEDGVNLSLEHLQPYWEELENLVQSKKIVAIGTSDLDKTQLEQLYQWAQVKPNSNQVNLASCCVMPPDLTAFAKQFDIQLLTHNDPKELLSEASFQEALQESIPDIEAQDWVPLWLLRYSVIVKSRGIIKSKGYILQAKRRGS
Kind of data set: γ-GCS activity in liver of treated mice. The format is in vivo. The method, then: (§1) Indomethacin (Sigma) was administered at a dose of 25 mg/kg in 5% sodium carbonate to Vanin-1^−/− (n=5) and WT (n=5) mice in 2 SC injections at 12 h-interval. Mice were sacrificed 20 hrs after the first injection. […] Cystamine was given by gavage 3 times on day 1 and once on day 2 at the dose of 120 mg/kg. The dose was adjusted so as to not induce intestinal inflammation. Mice were sacrificed 5 hours after the last gavage. To evaluate the impact of cystamine on indomethacin treatment, Vanin-1^−/− (n=5) and WT (n=5) mice received cystamine preceding indomethacin injection. In a complement study, indomethacin-treated WT mice (n=5) were supplemented with N-acetylcysteine (NAC) to determine the relationship between GSH depletion and injury. The antioxidant was given by gavage (200 μl of a 150 mg/ml, pH 7 solution) three times a day, starting 12 hrs prior indomethacin treatment.
(§2) γ-GCS activity was determined by the method described by (Seelig, 1984). GSH levels were determined according to Tietze et al., (1969).

Data set [2] deals with GSH. Kind of data set: GSH levels in liver of treated mice. The format is in vivo, mouse. The procedure: as §1, §2
Data set [3] relates to MIP-2, iNOS, COX-2, and COX-1 mRNAs. Put plainly: Semi-quantitative RT-PCR of inflammatory factors in jejunum. The format is in vivo, mouse. The procedure:
as §1
Total cellular RNA was isolated from jejunum samples of indomethacin-treated mice, by guanidinium thiocyanate phenol-chloroform extraction.

Data set [4] concerns GSH. Kind of data set: GSH levels in intestine of treated mice. The format is in vivo, mouse. The procedure:
as §1, §2

The target of data set [5] is T1, γ-GCS. Kind of data set: γ-GCS activity in intestine of treated mice. The format is in vivo. The method, then: as §1, §2
For another data set, the system named is jejunum. Kind of data set: Histological examination of intestinal injury. The format is in vivo, mouse. To be noted: following indomethacin treatment. The procedure: as §1
After sacrifice, jejunum of the indomethacin-treated mice were removed, formalin-fixed and paraffin-embedded. They were cut to 4-μm thickness and stained with hematoxylin-phloxine-saffron. Immunohistochemistry was performed on jejunum cryosections using the anti-Vanin-1 mAb H202-407 modified from Aurrand-Lions et al. (Aurrand-Lions, 1996).

The next data set concerns MPO. Put plainly: Intestinal myeloperoxidase (MPO) activity. Type of data set: in vivo, mouse. The conditions noted are these: jejunum, after indomethacin treatment. The procedure:
as §1, with “treatment. 3-cm intestinal samples taken in the most injured part, i.e. the colon of S. mansoni-infected mice and the jejunum of indomethacin-treated mice. Samples were homogenized in 0.5% hexadecyltrimethyl-ammonium bromide. MPO activity was determined as described previously (Liaudet, 2000).” for “treatment.”

[6] abbreviates: as described by Pitari et al. (1994).
[7] abbreviates: control as in indomethacin-treated animals.
Setting [8] is: cystamine administered without indomethacin.
Where [9] appears, read: jejunum, Vanin-1−/− mice, indomethacin 2 x 25 mg/kg SC.
Setting [10] is: NAC given to indomethacin-treated mice.

Take `c1cc(SSc2ccncc2)ccn1` [4,4′-dithiodipyridine]: the “type of Vanin-1 (pantetheinase) inhibition” value in the data set on Vanin-1 (setting [6]) is reported as “reversible inhibition”.
Turning to `O=C(O)c1cc(SSc2ccc([N+](=O)[O-])c(C(=O)O)c2)ccc1[N+](=O)[O-]` [5,5′-dithiobis(2-nitrobenzoic acid)], in the data set with Vanin-1 (setting [6]), the “type of Vanin-1 (pantetheinase) inhibition” value was “reversible inhibition”.
For the molecule `NCCSSCCN` [Cystamine, cystamine], the γ-GCS was found to be 11.2 ± 0.58 on γ-GCS [1] (KO (Vanin-1−/−) mice), 10.8 ± 0.63 at γ-GCS [1] (WT mice), 21.5 ± 2.4 at γ-GCS [5] (KO (Vanin-1−/−) mice) and 20.2 ± 1.2 on γ-GCS [5] (WT mice). In addition, the “γ-GCS activity, change” value on γ-GCS [1] (setting [7]) is “dramatically reduced”. Besides, the “type of Vanin-1 (pantetheinase) inhibition” value with Vanin-1 (setting [6]) is on record as “reversible inhibition”. Besides, the GSH in the data set with GSH [2] (KO (Vanin-1−/−) mice) was 5.55 ± 1.20; in the data set with GSH [2] (WT mice), 5.36 ± 1.15; with GSH [4] (KO (Vanin-1−/−) mice), 1.0 ± 0.05; with GSH [4] (WT mice), 0.90 ± 0.12. Also, in the data set on GSH [2] (setting [7]), the “GSH levels, change” value is listed as “dramatically reduced”. In addition, in data set [3] (setting [8]), the “COX-2 mRNA” value is “moderate upregulation”. The “iNOS and MIP-2 mRNAs” value in data set [3] (setting [8]) is reported as “did not change”. For the same molecule, in data set [3] (cystamine given to indomethacin-treated Vanin-1−/− mice), the “mRNA expression of inflammatory factors” value is on record as “restored mRNA expression to WT levels”. The “intestinal GSH levels, change” value in the data set on GSH [4] (cystamine administration) is “reduced”.
Take `COc1ccc2c(c1)c(CC(=O)O)c(C)n2C(=O)c1ccc(Cl)cc1` [Indomethacin, indomethacin]: the γ-GCS at γ-GCS [1] (KO (Vanin-1−/−) mice) is on record as 37.9 ± 3.33; on γ-GCS [1] (WT mice) it was 23.4 ± 0.72; at γ-GCS [5] (KO (Vanin-1−/−) mice), 23.7 ± 2.63; at γ-GCS [5] (WT mice), 18.4 ± 2.18. Besides, at γ-GCS [1] (following indomethacin treatment), the “γ-GCS activity, change” value is recorded as “increased”. Moreover, the GSH worked out at 16.6 ± 1.26 with GSH [2] (KO (Vanin-1−/−) mice), 9.50 ± 1.44 in the data set with GSH [2] (WT mice), 1.37 ± 0.24 in the data set on GSH [4] (KO (Vanin-1−/−) mice) and 0.56 ± 0.08 in the data set with GSH [4] (WT mice). Besides, the results for the “Histology of intestinal injury” value in the data set with jejunum (Vanin-1−/− mice) and in the data set with jejunum (WT mice) were “appeared normal” and “flattened mucosal villi”, respectively. For the same molecule, the “COX-2 and iNOS mRNAs” value in data set [3] (setting [9]) is “barely amplified”. Also, in data set [3] (setting [9]), the “MIP-2 mRNA” value is “undetectable”. The “COX-2, iNOS and MIP-2 mRNAs” value in data set [3] (jejunum, WT mice, indomethacin 2 x 25 mg/kg SC) is recorded as “sharp augmentation”. Also, in the data set on MPO, the “Intestinal MPO activity” value is reported as “dramatically enhanced”.
Take `CCN1C(=O)C=CC1=O` [N-ethyl maleimide]: in the data set with Vanin-1 (setting [6]), the “type of Vanin-1 (pantetheinase) inhibition” value is given as “irreversible inhibition”.
`CC(=O)N[C@@H](CS)C(=O)O` [NAC, N-acetylcysteine]: the “GSH levels, effect” value in the data set on GSH [4] (setting [10]) is “no marked effect”. Moreover, the “γ-GCS activity, effect” value at γ-GCS [5] (setting [10]) is “no marked effect”.
Regarding `NC(=O)CI` [iodoacetamide], in the data set on Vanin-1 (setting [6]), the “type of Vanin-1 (pantetheinase) inhibition” value is “irreversible inhibition”.
Consider `O=C(O)CI` [iodoacetate], for which the “type of Vanin-1 (pantetheinase) inhibition” value in the data set on Vanin-1 was “irreversible inhibition”.
On to `OCCSSCCO` [oxidized mercaptoethanol], for which the “type of Vanin-1 (pantetheinase) inhibition” value in the data set with Vanin-1 (setting [6]) is “reversible inhibition”.
